Bridge positions count the residues as written; N and C are the ends. Ends that are not written are not given here.
Key:
[1] = test system: patients with chronic idiopathic constipation (CIC); assay: Second phase 3 CIC trial: durable overall CSBM responders; format: in vivo, human; conditions: MRA; for Difference in Proportions (adjusted), durable overall CSBM responders / Odds Ratio (adjusted), durable overall CSBM responders: adjusted for gender
Text: (§1) Both trials include a two-week pre-treatment baseline period, a 12-week treatment period, and a two-week post-treatment period. The phase 3 CIC program was designed to support regulatory submission in the U. S.
The primary endpoint for both trials is the proportion of durable overall responders (%), which is the current regulatory endpoint required for U.S. approval in CIC. The FDA has defined a durable overall responder as a patient who fulfills both ≧3 complete spontaneous bowel movements (CSBMs) per week plus an increase of ≧1 CSBM from baseline in the same week, for 9 out of the 12 treatment weeks. In addition, the same patient must be an overall responder for at least 3 of the last 4 treatment weeks in order to be considered a durable overall responder.
(§2) Patients were selected using Rome 3 criteria modified for CIC and had (1) fewer than 3 defecations per week, (2) loose stools occurring rarely without laxatives, (3) inadequate criteria for irritable bowel syndrome with constipation (IBS-C), and (4) at least two of the following applied to at least 25% of defecations: (a) straining during evacuation, (b) lumpy or hard stools, (c) sensation of anorectal obstruction or blockage. Rome 3 requires patients to fulfill the criteria for the last 3 months with symptom onset at least 6 months prior to diagnosis.

[2] = test system: patients with chronic idiopathic constipation (CIC); assay: First phase 3 CIC trial: stool consistency, Bristol Stool Form Scale (BSFS) change from baseline; format: in vivo, human; conditions: for Change from Baseline in Stool Consistency, Difference from Placebo: overall 12-week; for Change from Baseline in Stool Consistency (BSFS), LS Mean (SE): overall average across the 12-week treatment period, ITT; for mean increase from baseline in BSFS score: placebo 0.77
Text: as §1, §2

[3] = Active Combined (N = 877), ITT Population-Excluding Duplicate Patients
[4] = Active Combined (N = 892), ITT Population
[5] = Active Combined (N = 941), All Randomized (includes Duplicate Patients)
[6] = Plecanatide 3 mg (N = 434), ITT Population-Excluding Duplicate Patients
[7] = Plecanatide 3 mg (N = 443), ITT Population
[8] = Plecanatide 3 mg (N = 470), All Randomized (includes Duplicate Patients)
[9] = Plecanatide 6 mg (N = 443), ITT Population-Excluding Duplicate Patients
[10] = Plecanatide 6 mg (N = 449), ITT Population
[11] = Plecanatide 6 mg (N = 471), All Randomized (includes Duplicate Patients)

With “Asn^1-Asp^2-Glu^3-Cys^4-Glu^5-Leu^6-Cys^7-Val^8-Asn^9-Val^10-Ala^11-Cys^12-Thr^13-Gly^14-Cys^15-Leu^16 (NDECELCVNVACTGCL; disulfide 4-12, 7-15) [Plecanatide, uroguanylin analogue, guanylate cyclase-C agonist; (C4:C12, C7:C15) bicycle peptide]” the “Durable Overall CSBM Responders, %” value [1, 3] was 20.4%, the “Non-Responders, %” value [1, 3] was 79.6% and the “Durable Overall CSBM Responders, %” value [1, 4] was 20.1%. The “Non-Responders, %” value [1, 4] was 79.9%, the “Durable Overall CSBM Responders, %” value [1, 5] was 19.7% and the “Non-Responders, %” value [1, 5] was 80.3%. The “Durable Overall CSBM Responders, %” value [1, 6] was 20.5%, the “Non-Responders, %” value [1, 6] was 79.5% and the “Durable Overall CSBM Responders, %” value [1, 7] was 20.1%. The “Non-Responders, %” value [1, 7] was 79.9%, the “Durable Overall CSBM Responders, %” value [1, 8] was 19.8% and the “Non-Responders, %” value [1, 8] was 80.2%. The “Difference in Proportions (adjusted), durable overall CSBM responders” value (“Difference in Proportions (adjusted)” for short) ([1]; Plecanatide 3 mg minus Placebo, All Randomized (includes Duplicate Patients)) was 0.076, the “Difference in Proportions (adjusted)” value ([1]; Plecanatide 3 mg minus Placebo, ITT Population) was 0.073 and the “Difference in Proportions (adjusted)” value ([1]; Plecanatide 3 mg minus Placebo, ITT Population-Excluding Duplicate Patients) was 0.075. For the same substance, the “Odds Ratio (adjusted), durable overall CSBM responders” value (“Odds Ratio (adjusted)” for short) ([1]; Plecanatide 3 mg, All Randomized (includes Duplicate Patients)) was 0.562, the “Odds Ratio (adjusted)” value ([1]; Plecanatide 3 mg, ITT Population) was 0.586 and the “Odds Ratio (adjusted)” value ([1]; Plecanatide 3 mg, ITT Population-Excluding Duplicate Patients) was 0.583. The “Durable Overall CSBM Responders, %” value [1, 9] was 20.3%, the “Non-Responders, %” value [1, 9] was 79.7% and the “Durable Overall CSBM Responders, %” value [1, 10] was 20.0%. The “Non-Responders, %” value [1, 10] was 80.0%, the “Durable Overall CSBM Responders, %” value [1, 11] was 19.5% and the “Non-Responders, %” value [1, 11] was 80.5%. For the same substance, the “Difference in Proportions (adjusted)” value ([1]; Plecanatide 6 mg minus Placebo, All Randomized (includes Duplicate Patients)) was 0.074, the “Difference in Proportions (adjusted)” value ([1]; Plecanatide 6 mg minus Placebo, ITT Population) was 0.072 and the “Difference in Proportions (adjusted)” value ([1]; Plecanatide 6 mg minus Placebo, ITT Population-Excluding Duplicate Patients) was 0.073. The “Odds Ratio (adjusted)” value ([1]; Plecanatide 6 mg, All Randomized (includes Duplicate Patients)) was 0.571, the “Odds Ratio (adjusted)” value ([1]; Plecanatide 6 mg, ITT Population) was 0.587 and the “Odds Ratio (adjusted)” value ([1]; Plecanatide 6 mg, ITT Population-Excluding Duplicate Patients) was 0.589. The “Week 1 Change from Baseline in Stool Consistency, Difference from Placebo” value ([2]; 3 mg) was 0.92, the “Week 1 Change from Baseline in Stool Consistency, LS Mean (SE)” value ([2]; 3 mg) was 1.50 (0.071) and the “stool consistency after discontinuation of treatment” value ([2]; 3.0 mg and 6.0 mg, post-treatment period) was “returned towards baseline with no indication of an exaggerated or rebound effect”. For the same substance, the “Week 1 Change from Baseline in Stool Consistency, Mean (SD)” value (from here on “Week 1 Change from Baseline … (SD)”) ([2]; 3 mg, n 414) was 1.57 (1.563), the “Change from Baseline in Stool Consistency, Difference from Placebo” value ([2]; 3 mg) was 0.76 and the “Change from Baseline in Stool Consistency (BSFS), LS Mean (SE)” value ([2]; 3 mg) was 1.53 (0.058). For the same substance, the “mean increase from baseline in BSFS score” value ([2]; 3.0 mg) was 1.53, the “Week 1 Change from Baseline in Stool Consistency, Difference from Placebo” value ([2]; 6 mg) was 0.85 and the “Week 1 Change from Baseline in Stool Consistency, LS Mean (SE)” value ([2]; 6 mg) was 1.42 (0.072). For the same substance, the “Week 1 Change from Baseline … (SD)” value ([2]; 6 mg, n 399) was 1.42 (1.640), the “Change from Baseline in Stool Consistency, Difference from Placebo” value ([2]; 6 mg) was 0.75 and the “Change from Baseline in Stool Consistency (BSFS), LS Mean (SE)” value ([2]; 6 mg) was 1.52 (0.059). The “mean increase from baseline in BSFS score” value ([2]; 6.0 mg) was 1.52 and the “Week 1 Change from Baseline … (SD)” value ([2]; Active Combined, n 813) was 1.49 (1.602).

Reference: patent US20160367623A1, “AGONISTS OF GUANYLATE CYCLASE USEFUL FOR THE TREATMENT OF GASTROINTESTINAL DISORDERS, INFLAMMATION, CANCER AND OTHER DISORDERS” (priority 2015, published 2016)
